Test results taken from PMC12284294 (iScience, 2025).

Assays:
[1] = biological target: T1, FPR1 (Homo sapiens, UniProt P21462); type: cell-based
T1 construct: expressed in transfected cells; host or cells: HEK293T
T1 sequence (P21462 1-350): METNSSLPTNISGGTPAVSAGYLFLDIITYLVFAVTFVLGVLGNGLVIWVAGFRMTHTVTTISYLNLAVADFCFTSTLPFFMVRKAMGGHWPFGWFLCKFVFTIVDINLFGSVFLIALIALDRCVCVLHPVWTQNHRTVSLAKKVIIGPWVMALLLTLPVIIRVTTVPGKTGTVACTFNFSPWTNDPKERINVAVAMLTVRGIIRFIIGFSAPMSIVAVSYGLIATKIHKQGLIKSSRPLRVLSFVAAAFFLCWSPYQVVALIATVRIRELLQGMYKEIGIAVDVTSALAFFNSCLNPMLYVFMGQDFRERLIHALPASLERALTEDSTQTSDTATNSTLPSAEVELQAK

[2] = system: human polymorphonuclear granulocytes (PMN; neutrophils); type: cell-based
[3] = system: FPR1, FPR2, FPR3, PMN; type: cell-based, human

GCLIGAEYVNNSYEC [Omicron Variant SCoV2_52, 15mer of Omicron spike pool library]
significant FPR1 activators (group of the spike peptide pool screening) [1]: significant FPR1 activators
FPR1 calcium activation in library screening ([1]; individual peptides 10 μM, n = 3): activator
significant PMN activators (group of the spike peptide pool screening) ([2]; SARS-CoV-2 omicron B.1.1.529 spike pool peptides, 10 µM, PMN, n=6): significant PMN activators
neutrophil calcium mobilization in library screening ([2]; individual peptides 10 μM, n = 6): activator
Match with activator (region): Receptor [3]: PMN + FPR1
